Measurements: patent US10159655B2, “Agent for inhibiting odor of pyrazine derivatives” (Kao Corporation, priority 2012, dated 2018)

Target: T1, olfactory receptor OR5K1 (Homo sapiens, UniProt Q8NHB7)
T1 construct: expressed in transfected cells; host or cells: HEK293
T1 sequence (Q8NHB7 1-308): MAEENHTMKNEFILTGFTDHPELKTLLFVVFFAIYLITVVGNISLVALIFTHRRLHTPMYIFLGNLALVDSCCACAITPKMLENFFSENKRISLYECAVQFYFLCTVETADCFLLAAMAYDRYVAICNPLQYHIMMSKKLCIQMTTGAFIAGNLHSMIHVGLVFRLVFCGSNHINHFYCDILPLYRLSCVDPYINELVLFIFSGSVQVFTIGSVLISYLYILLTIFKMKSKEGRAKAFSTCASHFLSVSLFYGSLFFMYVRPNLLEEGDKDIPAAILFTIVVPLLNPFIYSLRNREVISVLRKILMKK
Experiment: Luciferase reporter gene assay: response of olfactory receptor OR5K1 expressed in HEK293 cells to pyrazine compounds
Type: cell-based
Conditions: for dependency of the response of OR5K1 on the concentration of pyrazine compounds: 0, 3, 10, 30, 100, 300 and 1000 μM, HEK293 cells with RTP1S variant, FIG. 2
Excerpt: Human olfactory receptors were cloned based on sequence information registered in GenBank by PCR using human genomic DNA female (G1521: Promega Corporation) as a template. Each gene amplified by PCR was inserted into a pENTR vector (Invitrogen Inc.) in accordance with the manual and was recombined into the NotI and AscI site located downstream of a Flag-Rho tag sequence in a pME18S vector using the NotI and AscI site present in the pENTR vector.
An RTP1S variant gene (SEQ ID NO: 3) encoding an RTP1S variant (SEQ ID NO: 4) was inserted into the EcoRI and XhoI site of a pME18S vector.
HEK293 cells expressing 373 types of human olfactory receptors were produced. A reaction solution having a composition shown in Table 1 was prepared and left to stand in a clean bench for 15 min and then was dispensed in each well of a 96-well plate (Becton, Dickinson and Company). Subsequently, HEK293 cells (100 μL, 3×10^5 cells/cm^2) were seeded in each well and cultured in an incubator at 37° C. and 5% CO2 for 24 hr.
An olfactory receptor expressed in HEK293 cells couples with endogenous Gas in the cells to activate adenylate cyclase and thereby increases the amount of intracellular cAMP. In this study, the response of a pyrazine derivative was measured by luciferase reporter gene assay which monitors an increase in amount of intracellular cAMP as the luminescence value derived from a firefly luciferase gene (fluc2P-CRE-hygro). A Renilla luciferase gene was fused downstream of a CMV promoter (hRluc-CMV) and was also introduced to HEK293 cells as an internal standard to correct errors in transgenic efficiency and number of cells.
The culture medium was removed from the culture produced in the above 3), and 75 μL of a solution prepared with a CD293 medium (Invitrogen Inc.) so as to contain a pyrazine derivative (1 mM, 2,6-dimethylpyrazine) was added thereto. The cells were cultured in a CO2 incubator for 2.5 hr to sufficiently express the luciferase gene in the cells. The luciferase activity was measured with a Dual-Glo™ luciferase assay system (Promega Corporation) in accordance with the operating manual of the system. The fold increases were calculated by dividing the luminescence value derived from firefly luciferase induced by stimulation with a pyrazine derivative at each concentration by the luminescence value in cells not stimulated with the pyrazine derivative and were used as an index of response strength.
Olfactory receptor OR5K1 (SEQ ID NO: 2) was expressed in HEK293 cells together with an RTP1S variant (SEQ ID NO: 4) by the same procedure as in Example 1, and the dependency of the response on the concentration (0, 3, 10, 30, 100, 300, and 1000 μM) of various pyrazine compounds was investigated. The pyrazine compounds used in this Example were pyrazine and pyrazine derivatives selected from the group consisting of 2-methylpyrazine, 2,3-dimethylpyrazine, 2,5-dimethylpyrazine, 2,3,5-trimethylpyrazine, 2,3,5,6-tetramethylpyrazine, and 2-ethylpyrazine.

Compound | dependency of the response of OR5K1 on the concentration of pyrazine compounds | response of olfactory receptor to 2,6-dimethylpyrazine (fold increase of luciferase luminescence) (1 mM, 373 types of human olfactory receptors screened in HEK293 cells, FIG. 1)
Cc1nc(C)c(C)nc1C [2,3,5,6-tetramethylpyrazine] | dose-dependently responded | –
Cc1cnc(C)c(C)n1 [2,3,5-trimethylpyrazine] | dose-dependently responded | –
Cc1nccnc1C [2,3-dimethylpyrazine] | dose-dependently responded | –
Cc1cnc(C)cn1 [2,5-dimethylpyrazine] | dose-dependently responded | –
Cc1cncc(C)n1 [2,6-dimethylpyrazine] | dose-dependently responded | responded
CCc1cnccn1 [2-ethylpyrazine] | dose-dependently responded | –
Cc1cnccn1 [2-methylpyrazine] | dose-dependently responded | –
c1cnccn1 [pyrazine] | did not respond | –
